Laboratory results: patent publication US5229131A, “Pulsatile drug delivery system” (priority 1991, dated 1993)
Where a name gives a salt, the structure may show the parent alone. Read-outs that look alike come from different tables or passages of the source.

Legend:
[1] = cited from earlier work
[2] = in man; cited from earlier work
in vivo = conditions: dog, iv
Procedure: Single IV doses were given to each of a group of four beagle dogs: 5 mg of propranolol free base was dissolved in 3 ml sterile sodium chloride solution USP. The solution was infused over a 20 second period through an in-line millipore filter. Blood samples (1 ml) were withdrawn at desired intervals postinfusion. The IV results are shown as a " ." Similarly, blood plasma samples were withdrawn and analyzed for oral administration of 80 mg propranolol in immediate release form (" ") and the polymer coated dosage delivery form of section A. above ("+").
DDT is indicated by the release of citric acid from the drug-containing core which causes a spike in the pH time profile. The pH will remain depressed for the duration of the dissolution of the citric acid.
Blood samples (1 ml) were withdrawn at 5, 10, 15, 20, 30, 40, 50, 60, 70, 80, 90, 105, 120, 150, 180, 240, 300, 360 and 420 minutes after dosing for the immediate release dosage form. For the polymer coated tablets, the sampling schedule began at the time of coating dissolution (CDT). After dissolution, blood samples (1 ml) were withdrawn at 5, 15, 30, 45, 60, 90, 120, 190, 240, 300, 360 and 420 minutes.

[3] = saturated solution; cited from earlier work
[4] = list of drugs with nonlinear kinetics

Compound	F [1, 4]	further results
CC(C)C[C@H]1C(=O)N2CCC[C@H]2[C@]2(O)O[C@](NC(=O)[C@@H]3C=C4c5cccc6[nH]c(Br)c(c56)C[C@H]4N(C)C3)(C(C)C)C(=O)N12 [Bromocriptine Mesylate]	0.6	–
CN/C(=N/CCSCc1nc[nH]c1C)NC#N [Cimetidine]	0.7	–
C#C[C@]1(O)CC[C@H]2[C@@H]3CCc4cc(O)ccc4[C@H]3CC[C@@]21C [Ethinylestradiol]	0.4	–
C[C@H]1C[C@@H]2[C@H]([C@@H](O)C[C@@]3(C)[C@H]2CC[C@]3(O)C(=O)CO)[C@@]2(C)C=CC(=O)C=C12 [Methylprednisolone]	0.85	–
C#C[C@]1(O)CC[C@H]2[C@@H]3CCC4=CC(=O)CC[C@@H]4[C@H]3CC[C@@]21C [Norethindrone]	0.65	–
C[C@]12C=CC(=O)C=C1CC[C@@H]1[C@@H]2C(=O)C[C@@]2(C)[C@H]1CC[C@]2(O)C(=O)CO [Prednisone]	–	F ([1]; in vivo): 0.85
CC(C)NCC(O)COc1cccc2ccccc12 (stereo not shown) [propranolol]	–	biological half-life [2]: two to six; half-life (in vivo; half-life): 1.97 h; half-life (in vivo; terminal phase half-life): ~2 h
[Cl-].[Na+] [sodium chloride]	–	osmotic pressure [3]: 5250 psi
